Measurements reported in patent US5696151A, “Compounds useful for the inhibition of the replication of HIV-1 and HIV-1 mutants” (priority 1995, dated 1997).
Values after ≈ are worked out from the molar mass of the structure shown. Read-outs that look alike come from different tables or passages of the source.

Key:
Assay type in all cases: cell-based
in vitro = conditions: human, cem cells, CC50 (50% cytostatic concentration), Table 2B; CEM cell proliferation; averages of 2 to 3 independent experiments
Text: (§1) CEM cells were obtained from the American Tissue Cell Culture Collection (Rockville, Md.). HIV-1(IIIB) was originally obtained from the culture supernatant of persistently HIV-1-infected H9 cells and was provided by R. C. Gallo and M. Popovic (National Cancer Institute, National Institutes of Health, Bethesda, Md.). […] 67: 5353-5359 (1993); HIV-1/Lys-138 ("Lys-138") was selected for resistance against TSAO-m^3T as described in Balzarini et al, Virology 192: 246-253 (1993) and Balzarini et al, Proc. Nat. Acad. Sci. USA 90: 6952-6956 (1993); HIV-1/181-Cys ("181-Cys") was selected for resistance against pyridinone L-697,661 as described in Balzarini et al, Virology 192: 246-253 (1993); and HIV-1/188-His ("188-His") was selected for resistance against HEPT as described in Balzarini et al, Mol. Pharmocol. 44: 694-701 (1993). 188-His was then further converted to HIV-1/188-Leu "188-Leu") upon further passage in cell culture in the absence of the HEPT.
^b 50% cytostatic concentration (i.e., compound concentration require
to inhibit CEM cell proliferation by 50%)

HIV-1/181-Cys = experiment: Inhibition of HIV-1 induced syncytium formation in CEM cells, RT mutant 181-Cys; conditions: for EC50: Human immunodeficiency virus 1, CCRF-CEM, 96 h
Text: as §1
(§2) CEM cells were suspended at ≈300,000 cells per ml of culture medium and infected with approximately 100 CCID50 (CCID50 being the 50% cell culture infective dose) of HIV-1(IIIB) or one of the HIV-1 RT mutant strains described above. Then 100 μl of the infected cell suspensions was added to 200 μl microtiter plate wells containing 100 μl of appropriate serial (5-fold) dilutions of the test compounds. The inhibitory effect of the test compounds on HIV-1 induced syncytium formation in CEM cells was examined microscopically on day 4 post infection.

HIV-1/106-Ala = experiment: Inhibition of HIV-1 induced syncytium formation in CEM cells, RT mutant 106-Ala; conditions: for EC50: Human immunodeficiency virus 1, CCRF-CEM, 96 h
Text: as §1, §2

HIV-1/188-Leu = experiment: Inhibition of HIV-1 induced syncytium formation in CEM cells, RT mutant 188-Leu; conditions: Human immunodeficiency virus 1, CCRF-CEM, 96 h, Table 2B, day 4, averages of 2 to 3 independent experiments, read-out: Antiviral Activity of Comparative Compounds EC50, 188-Leu
Text: as §1, §2

HIV-1/100-Ile = experiment: Inhibition of HIV-1 induced syncytium formation in CEM cells, RT mutant 100-Ile; conditions: for EC50: Human immunodeficiency virus 1, CCRF-CEM, 96 h
Text: as §1, §2

HIV-1/Lys-138 = experiment: Inhibition of HIV-1 induced syncytium formation in CEM cells, RT mutant 138-Lys; conditions: for EC50: Human immunodeficiency virus 1, CCRF-CEM, 96 h
Text: as §1, §2

HIV-1/103-Asn = experiment: Inhibition of HIV-1 induced syncytium formation in CEM cells, RT mutant 103-Asn; conditions: Human immunodeficiency virus 1, CCRF-CEM, 96 h, Table 2B, day 4, averages of 2 to 3 independent experiments, read-out: Antiviral Activity of Comparative Compounds EC50, 103-Asn
Text: as §1, §2

HIV-1(IIIB) = experiment: Inhibition of HIV-1 induced syncytium formation in CEM cells, wild type; conditions: Table 2B, WT = HIV-1(IIIB), day 4, averages of 2 to 3 independent experiments; for EC50: Human immunodeficiency virus 1, IIIB, CCRF-CEM, 96 h, read-out: Antiviral Activity of Comparative Compounds EC50, WT
Text: as §1, §2

[1] = Table 2B, day 4, averages of 2 to 3 independent experiments
[2] = Table 2B, day 4, averages of 2 to 3 independent experiments, read-out: Antiviral Activity of Comparative Compounds EC50, 181-Cys
[3] = Table 2B, day 4, averages of 2 to 3 independent experiments, read-out: Antiviral Activity of Comparative Compounds EC50, 106-Ala
[4] = Table 2B, day 4, averages of 2 to 3 independent experiments, read-out: Antiviral Activity of Comparative Compounds EC50, 100-Ile
[5] = Table 2B, day 4, averages of 2 to 3 independent experiments, read-out: Antiviral Activity of Comparative Compounds EC50, 138-Lys

| Structure (SMILES) | CC50 (in vitro) [µg/mL] | Antiviral Activity of Comparative Compounds EC50, 181-Cys (HIV-1/181-Cys; [1]) [µg/mL] | Antiviral Activity of Comparative Compounds EC50, 106-Ala (HIV-1/106-Ala; [1]) [µg/mL] | EC50 (HIV-1/188-Leu) [µg/mL] | Antiviral Activity of Comparative Compounds EC50, 100-Ile (HIV-1/100-Ile; [1]) [µg/mL] | Antiviral Activity of Comparative Compounds EC50, 138-Lys (HIV-1/Lys-138; [1]) [µg/mL] | EC50 (HIV-1/103-Asn) [µg/mL] | Antiviral Activity of Comparative Compounds EC50, WT (HIV-1(IIIB)) [µg/mL] | EC50 (HIV-1/181-Cys; [2]) [µg/mL] | EC50 (HIV-1/106-Ala; [3]) [µg/mL] | EC50 (HIV-1/100-Ile; [4]) [µg/mL] | EC50 (HIV-1/Lys-138; [5]) [µg/mL] | EC50 (HIV-1(IIIB)) [µg/mL] | EC50 (HIV-1/181-Cys; read-out: Antiviral Activity of Comparative Compounds EC50, 181-Cys, Table 2B, day 4, averages of 2 to 3 independent experiments) [µg/mL] | EC50 (HIV-1/106-Ala; read-out: Antiviral Activity of Comparative Compounds EC50, 106-Ala, Table 2B, day 4, averages of 2 to 3 independent experiments) [µg/mL] | EC50 (HIV-1/100-Ile; read-out: Antiviral Activity of Comparative Compounds EC50, 100-Ile, Table 2B, day 4, averages of 2 to 3 independent experiments) [µg/mL] | EC50 (HIV-1/Lys-138; read-out: Antiviral Activity of Comparative Compounds EC50, 138-Lys, Table 2B, day 4, averages of 2 to 3 independent experiments) [µg/mL] |
| --- | --- | --- | --- | --- | --- | --- | --- | --- | --- | --- | --- | --- | --- | --- | --- | --- | --- |
| Cc1sccc1C(=O)Nc1ccc(Cl)c(C(=O)OC2CCCCC2)c1 [Compound 23] | 5.8 (≈ 15.3 µM) | 0.27 | 0.22 | > 2 | 0.7 | 0.73 | ≥ 2 | 0.03 |  |  |  |  |  |  |  |  |  |
| C=C(Cl)COc1cc(NC(=S)c2ccsc2C)ccc1C#N [Compound 25] | 3.3 (≈ 9.46 µM) |  |  | > 2 |  |  | 0.4 (≈ 1.15 µM) |  | 0.44 (≈ 1.26 µM) | 0.2 (≈ 0.573 µM) | 0.2 (≈ 0.573 µM) | 0.13 (≈ 0.373 µM) | 0.03 (≈ 0.086 µM) |  |  |  |  |
| Cc1c(C(=O)Nc2ccc(Cl)c(C=NOC(C)(C)C)c2)ccn1C [Compound 38] | 5.5 (≈ 15.8 µM) |  |  | > 2 |  |  | ≥ 2 |  | > 2 | 0.7 (≈ 2.01 µM) | ≥ 2 | ≥ 2 | 0.08 (≈ 0.23 µM) |  |  |  |  |
| COc1ccccc1C(=S)Nc1ccc(Cl)c(C(=O)OC(C)C)c1 [Compound 90] | 27 (≈ 74.2 µM) |  |  |  |  |  |  |  | 5.5 (≈ 15.1 µM) | 6 (≈ 16.5 µM) | 3.5 (≈ 9.62 µM) | 0.7 (≈ 1.92 µM) | 0.19 (≈ 0.522 µM) |  |  |  |  |
| CC(C)C(OC(=O)c1cc(NC(=S)c2ccccc2F)ccc1Cl)C(C)C [Compound 98] | 7.5 (≈ 18.4 µM) |  |  |  |  |  |  |  | > 1 | 0.85 (≈ 2.08 µM) | > 1 | 0.7 (≈ 1.72 µM) | 0.06 (≈ 0.147 µM) |  |  |  |  |
| Cc1ccccc1C(=S)Nc1ccc(Cl)c(C(=O)OC2CCCCC2)c1 [Compound 71] | 4 (≈ 10.3 µM) |  |  |  |  |  |  |  | 1.6 (≈ 4.12 µM) | 3 (≈ 7.73 µM) | 0.6 (≈ 1.55 µM) | 3 (≈ 7.73 µM) | 0.049 (≈ 0.126 µM) |  |  |  |  |
| C=C(C)COC(=O)c1cc(NC(=O)c2ccoc2C)ccc1Cl [Compound 50] | 3.7 (≈ 11.1 µM) |  |  |  |  |  |  |  | 1.9 (≈ 5.69 µM) | 1 (≈ 3 µM) | 5 (≈ 15 µM) | 1 (≈ 3 µM) | 0.15 (≈ 0.449 µM) |  |  |  |  |
| CC(C)OC(=O)c1cc(NC(=S)c2cccs2)ccc1Cl [Compound 89] | 4.9 (≈ 14.4 µM) |  |  |  |  |  |  |  | 4 (≈ 11.8 µM) | 4 (≈ 11.8 µM) | 3 (≈ 8.83 µM) | 1.9 (≈ 5.59 µM) | 0.09 (≈ 0.265 µM) |  |  |  |  |
| O=C(OC1CCCCC1)c1cc(NC(=S)c2ccsc2)ccc1Cl [Compound 79] | 4.1 (≈ 10.8 µM) |  |  |  |  |  |  |  | 0.08 (≈ 0.211 µM) | 0.07 (≈ 0.184 µM) | 0.85 (≈ 2.24 µM) | 0.07 (≈ 0.184 µM) | 0.03 (≈ 0.079 µM) |  |  |  |  |
| C#CCON=Cc1cc(NC(=S)c2ccoc2C)ccc1Cl [Compound 112] | 10 (≈ 30 µM) |  |  |  |  |  |  |  | 0.8 (≈ 2.4 µM) | 0.35 (≈ 1.05 µM) | 0.75 (≈ 2.25 µM) | 0.5 (≈ 1.5 µM) | 0.025 (≈ 0.0751 µM) |  |  |  |  |
| Cc1occc1C(=O)Nc1ccc(Cl)c(COC(C)(C)C)c1 [Compound 52] | 6.2 (≈ 19.3 µM) |  |  |  |  |  |  |  | ≥ 10 | 5.5 (≈ 17.1 µM) | 8.5 (≈ 26.4 µM) | 4 (≈ 12.4 µM) | 0.7 (≈ 2.18 µM) |  |  |  |  |
| CON=Cc1cc(NC(=S)c2ccoc2C)ccc1Cl [Compound 72] | 24 (≈ 77.7 µM) |  |  |  |  |  |  |  | 1.6 (≈ 5.18 µM) | 0.5 (≈ 1.62 µM) | 2.3 (≈ 7.45 µM) | 0.085 (≈ 0.275 µM) | 0.03 (≈ 0.0972 µM) |  |  |  |  |
| Cc1occc1C(=S)Nc1ccc(Cl)c(COC(C)(C)C)c1 [Compound 53] | 18 (≈ 53.3 µM) |  |  |  |  |  |  |  | 0.55 (≈ 1.63 µM) | 0.29 (≈ 0.858 µM) | 0.85 (≈ 2.52 µM) | 0.08 (≈ 0.237 µM) | 0.03 (≈ 0.0888 µM) |  |  |  |  |
| Cc1occc1C(=O)Nc1ccc(Cl)c(C(=O)OC(C)C)c1 [Compound 48] | 3.8 (≈ 11.8 µM) |  |  |  |  |  |  |  | 6 (≈ 18.6 µM) | 6.5 (≈ 20.2 µM) | 6.5 (≈ 20.2 µM) | 3.5 (≈ 10.9 µM) | 0.45 (≈ 1.4 µM) |  |  |  |  |
| CC(C)OC(=O)c1cc(NC(=O)c2ccccc2)ccc1Cl [Compound 62] | 6.2 (≈ 19.5 µM) |  |  |  |  |  |  |  | 5.5 (≈ 17.3 µM) | 5 (≈ 15.7 µM) | 3.5 (≈ 11 µM) | 5 (≈ 15.7 µM) | 0.4 (≈ 1.26 µM) |  |  |  |  |
| Cc1occc1C(=S)Nc1ccc(Cl)c(OCC(=O)OC(C)(C)C)c1 [Compound 115] | 4.3 (≈ 11.3 µM) |  |  |  |  |  |  |  | 0.5 (≈ 1.31 µM) | 0.2 (≈ 0.524 µM) | 0.65 (≈ 1.7 µM) | 0.77 (≈ 2.02 µM) | 0.29 (≈ 0.759 µM) |  |  |  |  |
| CC(C)C(OC(=O)c1cc(NC(=S)c2cccn2C)ccc1Cl)C(C)C [Compound 100] | > 100 |  |  |  |  |  |  |  | 0.65 (≈ 1.65 µM) | 0.8 (≈ 2.04 µM) | 4 (≈ 10.2 µM) | 0.4 (≈ 1.02 µM) | 0.03 (≈ 0.0763 µM) |  |  |  |  |
| O=C(OC1CCCCC1)c1cc(NC(=S)c2ccccc2F)ccc1Cl [Compound 65] | 19 (≈ 48.5 µM) |  |  |  |  |  |  |  | 0.25 (≈ 0.638 µM) | 0.26 (≈ 0.663 µM) | 0.3 (≈ 0.766 µM) | 0.09 (≈ 0.23 µM) | 0.04 (≈ 0.102 µM) |  |  |  |  |
| Cc1occc1C(=S)Nc1ccc(Cl)c(C(=O)OC(C(C)C)C(C)C)c1 [Compound 102] | 3.7 (≈ 9.39 µM) |  |  |  |  |  |  |  | 0.65 (≈ 1.65 µM) | 0.85 (≈ 2.16 µM) | 0.85 (≈ 2.16 µM) | 0.08 (≈ 0.203 µM) | 0.03 (≈ 0.0762 µM) |  |  |  |  |
| CC(C)C(OC(=O)c1cc(NC(=S)c2ccc[nH]2)ccc1Cl)C(C)C [Compound 99] | > 100 |  |  |  |  |  |  |  |  |  |  |  | 0.1 (≈ 0.264 µM) | > 10 | > 10 | > 1 | > 10 |
